This passage reports IC50 results from patent US8263597B2, “Indazole compounds as CCR1 receptor antagonists” (Boehringer Ingelheim International GmbH, priority 2008, dated 2012).

Each structure is given as a SMILES string. pIC50: −log10 of the molar value.

For orientation: pIC50 means the negative decadic logarithm of the IC50, by convention in mol/L.

The assay deals with T1, CCR1 (Homo sapiens, UniProt P32246).
T1 sequence (P32246 1-355): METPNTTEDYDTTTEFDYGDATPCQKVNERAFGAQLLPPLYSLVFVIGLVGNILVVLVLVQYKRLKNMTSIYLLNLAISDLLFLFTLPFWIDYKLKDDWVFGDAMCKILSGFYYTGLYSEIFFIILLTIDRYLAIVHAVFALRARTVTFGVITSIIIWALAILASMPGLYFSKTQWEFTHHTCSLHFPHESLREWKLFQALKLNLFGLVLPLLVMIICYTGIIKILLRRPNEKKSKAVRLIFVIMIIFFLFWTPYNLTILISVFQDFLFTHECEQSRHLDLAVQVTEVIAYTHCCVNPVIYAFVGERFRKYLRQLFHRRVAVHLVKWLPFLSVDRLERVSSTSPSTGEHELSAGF
Put plainly: Calcium flux in response to MIP-1 alpha in CCR1-transfected cells, Method B (Calcium 4 dye, […] FDSS6000). It is filed as cell-based. As to conditions: cells stably expressing recombinant CCR1 and G-alpha-16; MIP-1 alpha at EC80; 30 minutes at 37 C then 30 minutes at room temperature. The method, then: Compounds are assessed for the ability to block the interaction of CCR1 and its ligand in a functional cellular assay measuring calcium flux in response to MIP-1α in CCR1-transfected cells.
Method B: Non-adherent cells purchased from Chemicon Corporation (HTS005C), stably expressing recombinant CCR1 and G-alpha-16 are grown in RPMI 1640 medium (Mediatech 10-080-CM) supplemented with 10% FBS, 0.4 mg/mL Geneticin and penicillin/streptomycin. On the day of the assay, the cells are loaded with Calcium 4 dye (Molecular Devices R7448) with Probenecid (Invitrogen P346400) at 8E5 cells/mL for 1 hour at room temperature. After 1 hour, they are seeded in a 384-well tissue culture-treated plate at a density of 20,000 cells/well. Appropriately diluted test compound is added to the well to achieve a top concentration of 3,000 nM (diluted 4-fold with 10 doses total). The final concentration of DMSO is 1%. The buffer is HBSS (Invitrogen 14025) with 20 mM HEPES at pH 7.4. The cells incubate 30 minutes at 37 C and then 30 minutes at room temperature. The plates are transferred to the […] FDSS6000 where MIP-1 alpha in 1% BSA is added at the EC80 final concentration. All plates must be read within 4 hours of the start of dye-loading. Wells +/−MIP-1alpha containing diluted DMSO instead of compound serve as the controls. Data are analyzed using Activity Base software.
On the technique in general: A change in cytosolic calcium serves as a functional read-out for many receptors and channels.

As to `CC[C@H](NC(=O)c1cccc2c1cnn2-c1ccc(F)cc1)c1ccc(S(C)(=O)=O)nc1` [1-(4-Fluoro-phenyl)-1H-indazole-4-carboxylic acid [(S)-1-(6-methanesulfonyl-pyridin-3-yl)-propyl]-amide], the pIC50 was 8.70.
